Earlier results as cited in patent publication US9421272B2, “Nanocarrier compositions and methods” (RUTGERS, THE STATE UNIVERSITY OF NEW JERSEY, priority 2009, dated 2016).
Blank lines part the entries; values can stand above or below the molecule they belong to.

Legend:
PepT1 = target: T1, PepT1 (Homo sapiens, UniProt P46059); conditions: interaction between valacyclovir and PepT1
T1 sequence (P46059 1-708): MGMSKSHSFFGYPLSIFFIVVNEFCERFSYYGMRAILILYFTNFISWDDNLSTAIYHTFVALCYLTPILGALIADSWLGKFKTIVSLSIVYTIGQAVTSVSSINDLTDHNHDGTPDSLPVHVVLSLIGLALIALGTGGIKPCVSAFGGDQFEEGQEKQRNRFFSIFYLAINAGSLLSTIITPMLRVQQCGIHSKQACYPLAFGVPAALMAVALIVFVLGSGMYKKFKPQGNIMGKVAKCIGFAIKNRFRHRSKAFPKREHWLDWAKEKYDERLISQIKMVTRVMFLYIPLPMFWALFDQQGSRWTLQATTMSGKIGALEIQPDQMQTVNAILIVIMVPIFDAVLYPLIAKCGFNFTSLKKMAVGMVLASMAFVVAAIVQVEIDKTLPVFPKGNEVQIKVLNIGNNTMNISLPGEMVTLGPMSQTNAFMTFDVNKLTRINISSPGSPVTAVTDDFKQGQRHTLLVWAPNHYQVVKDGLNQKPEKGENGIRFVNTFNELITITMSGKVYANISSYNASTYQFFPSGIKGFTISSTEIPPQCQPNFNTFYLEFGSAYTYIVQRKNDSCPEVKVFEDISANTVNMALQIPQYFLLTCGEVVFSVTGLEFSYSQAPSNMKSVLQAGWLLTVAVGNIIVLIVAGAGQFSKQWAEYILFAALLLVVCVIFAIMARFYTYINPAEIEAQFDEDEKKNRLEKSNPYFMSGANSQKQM

[1] = disulfide bond; relative to cysteamine linker
[2] = compared to the counterpart with a 5 kDa linear PEG

increase in the bioavailability of acyclovir (PepT1): three to four-fold increase
Molecule: CC(C)[C@H](N)C(=O)OCCOCn1cnc2c(=O)[nH]c(N)nc21 [valacyclovir]

degradation rate, slower than the corresponding less hindered cysteamine linker [1]: about 100 times
Molecule: CC(C)(S)CN [1-amino-2-methyl-2-propanethiol]

B1: branched 10 kDa PEG to asparaginase: asparaginase bound to a branched 10 kDa PEG (conjugate, UniProt P00805 23-348, looked up)
L-asparaginase 2: LPNITILATGGTIAGGGDSATKSNYTVGKVGVENLVNAVPQLKDIANVKGEQVVNIGSQDMNDNVWLTLAKKINTDCDKTDGFVITHGTDTMEETAYFLDLTVKCDKPVVMVGAMRPSTSMSADGPFNLYNAVVTAADKASANRGVLVVMNDTVLDGRDVTKTNTTDVATFKSVNYGPLGYIHNGKIDYQRTPARKHTSDTPFDVSKLNELPKVGIVYNYANASDLPAKALVDAGYDGIVSAGVGNGNLYKSVFDTLATAAKTGTAVVRSSRVPTGATTQDAEVDDAKYGFVASGTLNPQKARVLLQLALTQTKDPQQIQQIFNQY
modifications: branched 10 kDa PEG
reduction of antigenicity [2]: 10 fold
